A short description of this test: Antagonist activity at CXCR4 receptor in human SUP-T1 cells assessed as reduction in SDF-1alpha-stimulated cell migration and measured by CellTiter-96 assay.

The values below come from BindingDB's records for PubMed 35124530 (Tsinghua University, 2022).

For `N=C(N)NCCC[C@H](NCc1ccccn1)C(=O)NCc1ccc(CNCCCNC2CCCCC2)cc1`, the IC50 is 236 nM.

In general, IC50 refers to the concentration that gives 50% inhibition.
